Assay results taken from article PMC10013830 (Molecular Plant Pathology, 2023).
Entries after “also recorded” stand apart in the source; their conditions may differ.

Experiments:
[1] = system: XccR binding to the luxXc box; assay: EMSA: effect of sugars on binding of XccR to the luxXc box; details: XccR-MBP, increasing sugar concentrations (glucose 0.005-5 μM)
[2] = system: pip promoter (Xcc 8008, pip-GUS reporter); assay type: cell-based, Xanthomonas campestris pv. campestris
XccR-MBP [3] = molecular target: T1, XccR-MBP (Xanthomonas campestris pv. campestris, UniProt B0RQF7); assay: Isothermal titration calorimetry of XccR-MBP with glucose; assay type: binding; details: XccR-MBP 10 μM titrated with 100 μM glucose
T1 sequence (B0RQF7 1-272): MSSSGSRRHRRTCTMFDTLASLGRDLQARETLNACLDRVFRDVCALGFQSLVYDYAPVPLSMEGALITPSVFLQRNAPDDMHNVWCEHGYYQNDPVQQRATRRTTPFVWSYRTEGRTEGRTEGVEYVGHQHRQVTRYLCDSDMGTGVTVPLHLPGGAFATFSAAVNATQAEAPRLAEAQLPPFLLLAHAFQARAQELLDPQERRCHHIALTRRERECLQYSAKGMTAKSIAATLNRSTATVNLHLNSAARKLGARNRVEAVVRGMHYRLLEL

XccR-MBP [4] = molecular target: T1, XccR-MBP; assay: Microscale thermophoresis
TraR = molecular target: T2, TraR (Agrobacterium tumefaciens, UniProt P33905); assay: MST TraR–glucose interaction; assay type: binding; details: Figure S7c
T2 sequence (P33905 1-234): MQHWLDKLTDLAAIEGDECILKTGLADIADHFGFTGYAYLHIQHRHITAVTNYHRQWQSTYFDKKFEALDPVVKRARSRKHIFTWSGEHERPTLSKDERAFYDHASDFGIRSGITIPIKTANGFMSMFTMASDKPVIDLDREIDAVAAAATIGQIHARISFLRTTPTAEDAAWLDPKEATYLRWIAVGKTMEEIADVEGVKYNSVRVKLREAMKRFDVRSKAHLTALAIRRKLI

LasR = molecular target: T3, LasR (Pseudomonas aeruginosa, UniProt P25084); assay: MST LasR–glucose interaction; assay type: binding; details: Figure S7d
T3 sequence (P25084 1-239): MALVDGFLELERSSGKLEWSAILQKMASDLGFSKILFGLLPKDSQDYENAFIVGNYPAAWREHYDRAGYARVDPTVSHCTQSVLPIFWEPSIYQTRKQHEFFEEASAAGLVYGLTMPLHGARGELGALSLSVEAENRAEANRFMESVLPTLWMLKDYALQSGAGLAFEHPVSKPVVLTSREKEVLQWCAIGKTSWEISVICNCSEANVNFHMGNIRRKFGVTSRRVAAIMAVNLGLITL

XccR-SUMO = molecular target: T4, XccR-SUMO (Xanthomonas campestris pv. campestris, UniProt B0RQF7); assay: MST binding of glucose to XccR-SUMO
T4 sequence (B0RQF7 1-272): T1 sequence (B0RQF7 1-272)

[5] = system: pip promoter (Xcc 8008 reporter strain); assay type: in vivo, Xanthomonas campestris pv. campestris in Arabidopsis; details: Atsweet2‐3‐2 and Atsweet15‐4‐7 mutant plants, bacterial suspension supplemented with glucose before infection

SMILES	Effect on binding of XccR to the luxXc box [1]	GUS activity driven by the pip promoter [2]	further results
O=CC[C@@H](O)[C@H](O)[C@H](O)CO [2‐deoxyglucose, 2‐deoxy‐D‐glucose, reference compound]	enhanced	promoted	
O=C(CO)[C@@H](O)[C@H](O)[C@H](O)CO [fructose]	did not enhance		
O=C[C@H](O)[C@@H](O)[C@H](O)[C@H](O)COP(=O)(O)O [glucose 6‐phosphate, D‐glucose 6‐phosphate]	did not enhance		
OC[C@H]1OC(O)[C@H](O)[C@@H](O)[C@@H]1O (stereo partly shown) [glucose, D‐glucose]	enhanced	increase; also recorded: promoted	Binding of XccR with glucose by ITC (XccR-MBP [3]): supported by the ITC results; Kd (XccR-MBP [4]): 252 nM; TraR–glucose interaction (TraR): did not interact; LasR–glucose binding (LasR): did not bind; Kd (XccR-SUMO): 242 nM; pip promoter-driven GUS activity in planta [5]: restored to the wild‐type level
OC[C@H]1O[C@@](CO)(O[C@H]2O[C@H](CO)[C@@H](O)[C@H](O)[C@H]2O)[C@@H](O)[C@@H]1O [sucrose]	did not enhance		
